Assay [1] has as its target T1, IRAK-4 (Homo sapiens, UniProt Q9NWZ3).
T1 sequence (Q9NWZ3 1-460): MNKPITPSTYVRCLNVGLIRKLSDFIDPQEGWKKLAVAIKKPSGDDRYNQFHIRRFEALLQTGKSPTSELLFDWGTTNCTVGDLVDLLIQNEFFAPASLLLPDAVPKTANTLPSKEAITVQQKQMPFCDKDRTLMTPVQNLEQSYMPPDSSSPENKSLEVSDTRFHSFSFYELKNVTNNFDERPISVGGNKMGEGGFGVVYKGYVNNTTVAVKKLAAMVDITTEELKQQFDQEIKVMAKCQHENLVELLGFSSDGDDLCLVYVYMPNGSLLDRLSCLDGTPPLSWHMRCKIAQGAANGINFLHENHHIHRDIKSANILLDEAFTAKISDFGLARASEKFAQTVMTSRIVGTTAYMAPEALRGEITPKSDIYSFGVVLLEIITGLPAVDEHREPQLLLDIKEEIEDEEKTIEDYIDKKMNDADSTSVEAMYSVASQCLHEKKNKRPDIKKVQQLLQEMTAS
Put plainly: PD study in C.B.17 SCID mice with OCI-LY1 tumor xenograft. The class given is in vivo. The following applies: OCI-Ly1 tumor lysate, ELISA normalized to total protein; oral 5, 15 or 50 mg/kg, 24 hours post-dose; vs vehicle; FIG. 2. Also on record: from tissue; host or cells: OCI-Ly1 tumour xenograft from C.B.17 SCID mice. As to the method:
FIG. 2. PD study in C.B.17 SCID mice with OCI-LY1 tumor xenograft.
PD Study for with in C.B.17 SCID and WT Mice
Cell culture: OCI-Ly1 tumor cells were maintained as a suspension in IMDM medium supplemented with 20% fetal bovine serum under an atmosphere of 5% C02 in air at 37° C. Cell density was maintained below 1×10^6/mL.
Animals: Female C.B. 17 SCID mice aged 6-8 weeks weighing between 16-18 g were used and maintained according to IACUC protocols.
Tumor Inoculation: Each mouse was inoculated with OCI-Ly1 tumor cells (10×106) in 0.1 mL of RPMI with Matrigel. Treatment was initiated when the tumor sizes reached […].
A PD Study in C.B.17 SCID Mice with OCI-LY1 Tumor Xenograft was Performed
In FIG. 2, animals were dosed orally after tumors were inoculated and the tumor sizes reached […], with 5, 15, or 50 mg/kg formulated with 10% DMSO, 90% (2% Tween 80 in PEG 400) and sacrificed humanely 24 hours post-dose. Blood was obtained for isolation of plasma for terminal compound exposure. Tumors was removed and divided in 2 portions, one each for terminal compound concentration and for determination of IRAK-4 content. Compound concentrations were determined by LC/MS with calibrated standards. IRAK-4 content in tumor lysate was quantified by ELISA and normalized to total protein concentration per sample. […]
On the technique in general: ELISA stands for enzyme-linked immunosorbent assay.

In assay [2] the target is T1, IRAK-4. Kind of assay: IRAK-4 ELISA, PBMC degradation. The class given is cell-based. Also on record: endogenous in cells; host or cells: PBMC. The following applies: treated overnight. The essentials:
(§1)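 Steps: seed cells (OCI-Ly10 1×10^6/ml; PBMC 2×10^6/ml); add compound the same day; incubate overnight; lyse; quantify IRAK-4 by matched-pair ELISA.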

Assay [3] has as its system IL6. Kind of assay: LPS stimulated IL6 inhibition assay in PBMC. The class given is cell-based. The conditions noted are these: Homo sapiens, PBMC, 24 h, human PBMCs, LPS stimulation, compound overnight, IL6 by MSD after 24 hrs; for Dmax: read-out: LPS Stim IL6 inhibition Dmax; for IC50: read-out: LPS stim IL6 inhibition IC50. The procedure, abridged:
(§2)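 Primary human PBMCs plated at 2.0×10^6 cells/mL are incubated with compound overnight. Stimulation follows using the donor's EC50 concentration of agonist. MSD detects secreted IL6/IL8 at 24 hrs.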

The subject of assay [4] is IL6. Put plainly: R848 stimulated IL6 inhibition assay in PBMC. The class given is cell-based. The following applies: PBMC, human PBMCs, R848 stimulation, compound overnight, IL6 by MSD after 24 hrs; for Dmax: Homo sapiens, 24 h, read-out: R848 stim IL6 inhibition Dmax; for IC50: read-out: R848 stim IL6 inhibition IC50. The essentials:
as §2

For assay [5], the target named is T2, IRAK-4 (Mus musculus, UniProt Q8R4K2).
T2 construct: plasma, spleen and lung tissue were collected for analysis of compound concentration and IRAK-4 quantification; from tissue; host or cells: spleen and lung of wild type mice
T2 sequence (Q8R4K2 1-459): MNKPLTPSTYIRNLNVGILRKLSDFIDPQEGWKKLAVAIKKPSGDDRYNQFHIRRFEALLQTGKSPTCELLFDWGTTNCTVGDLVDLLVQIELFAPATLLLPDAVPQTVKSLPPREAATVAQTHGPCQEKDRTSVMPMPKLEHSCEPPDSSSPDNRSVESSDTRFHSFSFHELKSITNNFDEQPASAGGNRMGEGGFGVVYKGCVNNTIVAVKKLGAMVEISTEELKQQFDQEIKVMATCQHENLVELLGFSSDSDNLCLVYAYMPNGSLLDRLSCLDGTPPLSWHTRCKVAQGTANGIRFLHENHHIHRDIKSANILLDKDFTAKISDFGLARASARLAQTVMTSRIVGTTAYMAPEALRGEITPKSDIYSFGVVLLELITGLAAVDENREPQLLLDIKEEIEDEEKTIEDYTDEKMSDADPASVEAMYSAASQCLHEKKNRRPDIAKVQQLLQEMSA
Kind of assay: PD study in wild type mice (spleen and lung). The class given is in vivo. The following applies: oral 10, 30 or 90 mg/kg, terminated 24 h later, ELISA, vs vehicle, FIGS. 3A and 3B. The procedure:
FIGS. 3A and 3B. PD study in wild type mice.
A PD Study in Wild Type Mice was Performed
In FIGS. 3A and 3B, mice were randomly assigned to each treatment group. Animals were dosed orally with 10, 30, or 90 mg/kg compound formulated in 10% DMSO, 90% (2% Tween 80 in PEG 400) and terminated 24 h later. At termination, plasma, spleen and lung tissue were collected for analysis of compound concentration and IRAK-4 quantification. Spleen and lung were snap frozen. IRAK-4 content in any tissue is assessed with the same protocol described for tumor lysates.

Assay [6] addresses T1, IRAK-4. Put plainly: IRAK-4 ELISA, OCI-Ly10 degradation. The class given is cell-based. Also on record: endogenous in cells. The conditions noted are these: treated overnight; for Dmax: OCI-Ly10, OCI-Ly10 cells; for DC50: OCI-Ly10 cells. The procedure, abridged:
as §1

The test system of a further assay is IL8. Put plainly: IL-1β stimulated IL8 inhibition assay in PBMC. The class given is cell-based. The following applies: human PBMCs, IL-1β stimulation, compound overnight, IL8 by MSD after 24 hrs; for IC50: read-out: IL1β stim IL8 inhibition IC50; for Emax: read-out: IL1β stim IL8 inhibition Ymax. The essentials:
as §2

For assay [7], the system named is IL6. Put plainly: IL-1β stimulated IL6 inhibition assay in PBMC. The class given is cell-based. The following applies: PBMC, human PBMCs, IL-1β stimulation, compound overnight, IL6 by MSD after 24 hrs; for IC50: Homo sapiens, 24 h, read-out: IL1β stim IL6 inhibition IC50; for Emax: read-out: IL1β stim IL6 inhibition Ymax. The procedure, abridged: as §2

Broadly, the DC50 is the concentration giving 50% degradation. Usually IC50 stands for the concentration needed to halve the response being measured. For the compound `CC(C)Oc1cc2c(cc1NC(=O)c1cnn3cccnc13)CN(C1CCN(C(C)(C)C3CN(c4ccc5c(c4)C(=O)N(C4CCC(=O)NC4=O)C5=O)C3)CC1)C2=O` (stereo not drawn) [Example 112], the “IRAK-4 concentration in the tumor samples” value on IRAK-4 [1] is given as “lower”. For the same compound, on IRAK-4 [2], the DC50 fell in the range of 1 to 5 nM, the Dmax was ≥ 90% and the “PBMC DC90” value is reported as “A (A represents a DC90 value <10.0 nM)”. Further, in the assay with IL6 [3], the Dmax is ≥ 90% and the 50% inhibitory concentration (IC50) fell in the range of 10 to 50 nM. In the assay with IL6 [4], the Dmax was ≥ 90% and the IC50 lay within 10 to 50 nM. The “IRAK-4 concentration in spleen and lung samples” value at IRAK-4 [5] is listed as “much lower”.

Turning to `O=C1CCC(N2C(=O)c3ccc(N4CCC(CN5CCC(n6cc7cc(NC(=O)c8cnn9cccnc89)c(OCC8CC8)cc7n6)CC5)CC4)cc3C2=O)C(=O)N1` (stereo not drawn) [Example 165], the Dmax at IRAK-4 [6] was ≥ 90%; on IRAK-4 [2], ≥ 90%; with IL6 [3], 70 to 80%; in the assay with IL6 [4] it was ≥ 90%. The DC50 on IRAK-4 [6] was 10 to 50 nM; on IRAK-4 [2], 1 to 5 nM. Besides, the IC50 with IL8 is 10 to 50 nM; in the assay with IL6 [7], < 10 nM; with IL6 [3] it was 10 to 50 nM; in the assay on IL6 [4] it was 10 to 50 nM. The Emax is 70 to 80% in the assay with IL8 and 80 to 90% in the assay with IL6 [7]. For the same compound, the “PBMC DC90” value at IRAK-4 [2] was “A (A represents a DC90 value <10.0 nM)”.

Take `O=C1CCC(N2C(=O)c3ccc(N4CCN(CCN5CCC(n6cc7cc(NC(=O)c8cnn9cccnc89)c(OCC8CC8)cc7n6)CC5)CC4)cc3C2=O)C(=O)N1` (stereo not drawn) [Example 167]: on IRAK-4 [6], the Dmax was ≥ 90% and the DC50 was < 10 nM. Besides, in the assay with IL8, the IC50 is ≥ 100 nM and the Emax was in the range of 80 to 90%. Further, in the assay with IL6 [7], the IC50 lay in the range of 10 to 50 nM and the Emax was ≥ 90%. At IRAK-4 [2], the DC50 was < 1 nM, the Dmax was ≥ 90% and the “PBMC DC90” value is listed as “A (A represents a DC90 value <10.0 nM)”. Also, the “IRAK-4 concentration in spleen and lung samples” value on IRAK-4 [5] is “much lower”.

In the case of `CC(C)Oc1cc2c(cc1NC(=O)c1cnn3cccnc13)CN([C@H]1CC[C@H](N(C)C3CN(c4ccc5c(c4)C(=O)N(C4CCC(=O)NC4=O)C5=O)C3)CC1)C2=O` (stereo partly drawn) [Example 313, N-(2-((1r,4r)-4-((1-(2-(2,6-dioxopiperidin-3-yl)-1,3-dioxoisoindolin-5-yl)azetidin-3-yl)(methyl)amino)cyclohexyl)-6-isopropoxy-1-oxoisoindolin-5-yl)pyrazolo[1,5-a]pyrimidine-3-carboxamide], the Dmax was ≥ 90% on IRAK-4 [6], ≥ 90% at IRAK-4 [2], 80 to 90% in the assay with IL6 [3] and ≥ 90% in the assay on IL6 [4]. Further, the DC50 is < 10 nM at IRAK-4 [6] and < 1 nM at IRAK-4 [2]. In addition, the IC50 is < 10 nM with IL8, < 10 nM with IL6 [7], 10 to 50 nM in the assay with IL6 [3] and < 10 nM in the assay with IL6 [4]. Also, the Emax in the assay with IL8 was < 70%; in the assay on IL6 [7], ≥ 90%. At IRAK-4 [2], the “PBMC DC90” value is “A (A represents a DC90 value <10.0 nM)”.

The record behind these values is patent publication US20230099344A1, “COMPOUNDS AND METHODS FOR THE TARGETED DEGRADATION OF IRAK-4” (Arvinas Operations, Inc., priority 2021, published 2023).
